Each molecule was assayed on monocytic THP1 cells infected with HIV VSV-G pseudotyped GFP-NEF reporter virus (assay: cells). Conditions: Human immunodeficiency virus 1, THP-1, 24 h.
Assay type: cell-based
In the case of Cc1cc([C@@H]2C[C@@H]2C#N)cc(C)c1Oc1nc(NC23CC(C#N)(C2)C3)nc2nn(C)cc12 (racemic) [Compound 131, (rac)-3-[[4-[4-[(1R,2S)-2-cyanocyclopropyl]-2,6-dimethyl-phenoxy]-2-methyl-pyrazolo[3,4-d]pyrimidin-6-yl]amino]bicyclo[1.1.1]pentane-1-carbonitrile], the EC50 is reported as 1470 nM.
Cc1cc([C@H]2C[C@@H]2C#N)cc(C)c1Oc1nc(NC23CC(C#N)(C2)C3)nc2nn(C)cc12 (racemic) [Compound 132, (rac)-3-((4-(4-((1S,2S)-2-cyanocyclopropyl)-2,6-dimethylphenoxy)-2-methyl-2H-pyrazolo[3,4-d]pyrimidin-6-yl)amino)bicyclo[1.1.1]pentane-1-carbonitrile] gave an EC50 of 267 nM.
For Cc1cc([C@@H]2C[C@H]2C#N)cc(C)c1Oc1nc(NC23CC(C#N)(C2)C3)nc2nn(C)cc12 (racemic) [Compound 134, (rac)-3-((4-(4-((1R,2R)-2-cyanocyclopropyl)-2,6-dimethylphenoxy)-2-methyl-2H-pyrazolo[3,4-d]pyrimidin-6-yl)amino)bicyclo[1.1.1]pentane-1-carbonitrile], the EC50 was 262 nM.
Molecule Cc1cc(/C=C/C#N)cc(C)c1Oc1nc(NC23CC(C#N)(C2)C3)nc2c1C1OCCCN1C2=O (racemic) [Compound 278, (E)-3-((4-(4-(2-cyanovinyl)-2,6-dimethylphenoxy)-10-oxo-4b,7,8,10-tetrahydro-6H-pyrimido[5′,4′:3,4]pyrrolo[2,1-b][1,3]oxazin-2-yl)amino)bicyclo[1.1.1]pentane-1-carbonitrile] has an EC50 of 30.8 nM.
Cc1cc(/C=C/C#N)cc(C)c1Oc1nc(NC23CC(C#N)(C2)C3)nc2c1[C@@]1(C)O[C@H]3CC[C@H]3N1C2=O (relative stereo) [Compound 285, 3-(((4bR,5aS,7aR)-4-(4-((E)-2-cyanovinyl)-2,6-dimethylphenoxy)-4b-methyl-9-oxo-4b,5a,6,7,7a,9-hexahydrocyclobuta[4′,5′]oxazolo[3′,2′:1,5]pyrrolo[3,4-d]pyrimidin-2-yl)amino)bicyclo[1.1.1]pentane-1-carbonitrile] gave an EC50 of 92.5 nM.
Work on Cc1cc(/C=C/C#N)cc(C)c1Oc1nc(NC23CC(C#N)(C2)C3)nc2nnn(C(F)F)c12 (single isomer, unassigned) [Compound 11, (E)-3-((7-(4-(2-cyanovinyl)-2,6-dimethylphenoxy)-1-(difluoromethyl)-1H-[1,2,3]triazolo[4,5-d]pyrimidin-5-yl)amino)bicyclo[1.1.1]pentane-1-carbonitrile] yielded an EC50 of 27.7 nM.
Cc1cc(/C=C/C#N)cc(C)c1Oc1nc(NC23CC(C#N)(C2)C3)nc2nc(C)n(Cc3ccn[nH]3)c12 (single isomer, unassigned) [Compound 18, (E)-3-((7-((1H-pyrazol-5-yl)methyl)-6-(4-(2-cyanovinyl)-2,6-dimethylphenoxy)-8-methyl-7H-purin-2-yl)amino)bicyclo[1.1.1]pentane-1-carbonitrile] gave an EC50 of 24 nM.
Cc1cc(/C=C/C#N)cc(C)c1Oc1nc(NC23CC(C#N)(C2)C3)nc2c1nc(C)n2Cc1ccn[nH]1 (single isomer, unassigned) [Compound 19, (E)-3-((9-((1H-pyrazol-5-yl)methyl)-6-(4-(2-cyanovinyl)-2,6-dimethylphenoxy)-8-methyl-9H-purin-2-yl)amino)bicyclo[1.1.1]pentane-1-carbonitrile] was tested, and the EC50 was 90.9 nM.
In the case of Cc1cc(/C=C/C#N)cc(C)c1Oc1nc(NC23CC(C#N)(C2)C3)nc2nc(C)n(CC(F)F)c12 (single isomer, unassigned) [Compound 20, (E)-3-((6-(4-(2-cyanovinyl)-2,6-dimethylphenoxy)-7-(2,2-difluoroethyl)-8-methyl-7H-purin-2-yl)amino)bicyclo[1.1.1]pentane-1-carbonitrile], the EC50 is reported as 25.5 nM.
Cc1cc(/C=C/C#N)cc(C)c1Oc1nc(NC23CC(C#N)(C2)C3)nc2c1nc(C)n2CC(F)F (single isomer, unassigned) [Compound 21, (E)-3-((6-(4-(2-cyanovinyl)-2,6-dimethylphenoxy)-9-(2,2-difluoroethyl)-8-methyl-9H-purin-2-yl)amino)bicyclo[1.1.1]pentane-1-carbonitrile] gave an EC50 of 280 nM.
Cc1cc(/C=C/C#N)cc(C)c1Oc1nc(NC23CC(C#N)(C2)C3)nc2nn(C(F)F)nc12 (single isomer, unassigned) [Compound 22, (E)-3-((7-(4-(2-cyanovinyl)-2,6-dimethylphenoxy)-2-(difluoromethyl)-2H-[1,2,3]triazolo[4,5-d]pyrimidin-5-yl)amino)bicyclo[1.1.1]pentane-1-carbonitrile] showed an EC50 of 259 nM.
Molecule Cc1cc(/C=C/C#N)cc(C)c1Oc1nc(NC23CC(C#N)(C2)C3)nc2nn(C)c(Cl)c12 (single isomer, unassigned) [Compound 95, (E)-3-((3-chloro-4-(4-(2-cyanovinyl)-2,6-dimethylphenoxy)-1-methyl-11H-pyrazolo[3,4-d]pyrimidin-6-yl)amino)bicyclo[1.1.1]pentane-1-carbonitrile] has an EC50 of 30.6 nM.
Work on Cc1cc(/C=C/C#N)cc(C)c1Oc1nc(NC23CC(C#N)(C2)C3)nc2c1c(Cl)nn2C (single isomer, unassigned) [Compound 96, (E)-3-((3-chloro-4-(4-(2-cyanovinyl)-2,6-dimethylphenoxy)-1-methyl-11H-pyrazolo[3,4-d]pyrimidin-6-yl)amino)bicyclo[1.1.1]pentane-1-carbonitrile] yielded an EC50 of 360 nM.
For Cc1cc([C@H]2C[C@@H]2C#N)cc(C)c1Oc1nc(NC23CC(C#N)(C2)C3)nc2nn(C)cc12 (single isomer, unassigned) [Compound 133], the EC50 was 511 nM.
Cc1cc(/C=C/C#N)cc(C)c1Oc1nc(NC23CC(C#N)(C2)C3)nc2nc3n(c12)CCCO3 (single isomer, unassigned) [Compound 182, (E)-3-((4-(4-(2-cyanovinyl)-2,6-dimethylphenoxy)-7,8-dihydro-6H-[1,3]oxazino[2,3-f]purin-2-yl)amino)bicyclo[1.1.1]pentane-1-carbonitrile] showed an EC50 of 34.2 nM.
With Cc1cc(/C=C/C#N)cc(C)c1Oc1nc(NC23CC(C#N)(C2)C3)nc2c1nc1n2CCCO1 (single isomer, unassigned) [Compound 183, (E)-3-((4-(4-(2-cyanovinyl)-2,6-dimethylphenoxy)-8,9-dihydro-7H-[1,3]oxazino[3,2-e]purin-2-yl)amino)bicyclo[1.1.1]pentane-1-carbonitrile] the EC50 was 80 nM.
With Cc1cc(/C=C/C#N)cc(C)c1Oc1nc(NC23CC(C#N)(C2)C3)nc2nc3n(c12)C[C@@H](F)CO3 (single isomer, unassigned) [Compound 191] the EC50 was 51.8 nM.
With Cc1cc(/C=C/C#N)cc(C)c1Oc1nc(NC23CC(C#N)(C2)C3)nc2nc3n(c12)C[C@H](F)CO3 (single isomer, unassigned) [Compound 192] the EC50 was 27.1 nM.
For Cc1cc(/C=C/C#N)cc(C)c1Oc1nc(NC23CC(C#N)(C2)C3)nc2nc3n(c12)C[C@@H](O)CO3 (single isomer, unassigned) [Compound 193], the EC50 was 319 nM.
Cc1cc(/C=C/C#N)cc(C)c1Oc1nc(NC23CC(C#N)(C2)C3)nc2nc3n(c12)C[C@H](O)CO3 (single isomer, unassigned) [Compound 194] gave an EC50 of 49.7 nM.
Cc1cc(/C=C/C#N)cc(C)c1Oc1nc(NC23CC(C#N)(C2)C3)nc2c1[C@H]1OC[C@H](F)CN1C2=O (single isomer, unassigned) [Compound 281] gave an EC50 of 74.2 nM.
Cc1cc(/C=C/C#N)cc(C)c1Oc1nc(NC23CC(C#N)(C2)C3)nc2c1[C@@H]1OC[C@H](F)CN1C2=O (single isomer, unassigned) [Compound 282] showed an EC50 of 50.1 nM.
With Cc1cc(/C=C/C#N)cc(C)c1Oc1nc(NC23CC(C#N)(C2)C3)nc2c1[C@@]1(C)O[C@@H]3CC[C@@H]3N1C2=O (single isomer, unassigned) [Compound 283] the EC50 was 44.8 nM.
In the case of Cc1cc(/C=C/C#N)cc(C)c1Oc1nc(NC23CC(C#N)(C2)C3)nc2c1[C@]1(C)O[C@@H]3CC[C@@H]3N1C2=O (single isomer, unassigned) [Compound 284], the EC50 is reported as 34.9 nM.
CO[C@H]1COC2(C)c3c(Oc4c(C)cc(/C=C/C#N)cc4C)nc(NC45CC(C#N)(C4)C5)nc3C(=O)N2C1 (single isomer, unassigned) [Example 235] was tested, and the EC50 was 22.8 nM.
Cc1cc(/C=C/C#N)cc(C)c1Oc1nc(NC23CC(C#N)(C2)C3)nc2c1C1(C)O[C@H](C)CCN1C2=O (single isomer, unassigned) [Example 242] gave an EC50 of 36.4 nM.
Molecule Cc1cc(/C=C/C#N)cc(C)c1Oc1nc(NC23CC(C#N)(C2)C3)nc2c1C1(C)OC[C@@H](C)CN1C2=O (single isomer, unassigned) [Example 243] has an EC50 of 219 nM.
In the case of CO[C@@H]1COC2(C)c3c(Oc4c(C)cc(/C=C/C#N)cc4C)nc(NC45CC(C#N)(C4)C5)nc3C(=O)N2C1 (single isomer, unassigned) [Example 244], the EC50 is reported as 111 nM.
For Cc1cc(/C=C/C#N)cc(C)c1Oc1nc(NC23CC(C#N)(C2)C3)nc2c1C1(C)OC[C@H](C)CN1C2=O (single isomer, unassigned) [Example 245], the EC50 was 22.3 nM.
In the case of Cc1cc(/C=C/C#N)cc(C)c1Oc1nc(NC23CC(C#N)(C2)C3)nc2c1[C@]1(C)O[C@@H](C)CN1C2=O (single isomer, unassigned) [Example 248], the EC50 is reported as 121 nM.
Cc1cc(/C=C/C#N)cc(C)c1Oc1nc(NC23CC(C#N)(C2)C3)nc2c1[C@@]1(C)O[C@@H](C)CN1C2=O (single isomer, unassigned) [Example 249] was tested, and the EC50 was 75.7 nM.
For Cc1cc(/C=C/C#N)cc(C)c1Oc1nc(NC23CC(C#N)(C2)C3)nc2c1C1(C)O[C@H](C)CN1C2=O (single isomer, unassigned) [Example 251], the EC50 was 73.2 nM.
In the case of CO[C@H]1COC2c3c(Oc4c(C)cc(/C=C/C#N)cc4C)nc(NC45CC(C#N)(C4)C5)nc3C(=O)N2C1 (single isomer, unassigned) [Example 252], the EC50 is reported as 77.1 nM.
CCOc1cc(/C=C/C#N)cc(Cl)c1Oc1nc(NC23CC(C#N)(C2)C3)nc2[nH]nc(C)c12 [Compound 3, (E)-3-((4-(2-chloro-4-(2-cyanovinyl)-6-ethoxyphenoxy)-3-methyl-11H-pyrazolo[3,4-d]pyrimidin-6-yl)amino)bicyclo[1.1.1]pentane-1-carbonitrile] was tested, and the EC50 was 29.6 nM.

Reference: patent US20250333424A1, “ANTIVIRAL COMPOUNDS” (Gilead Sciences, Inc., priority 2024, published 2025)
